Measured values taken from patent US20160361391A1, “REDUCTION OF TRAF1 LEVELS COMBINED WITH NUTRIENT STRESS FOR TREATING LYMPHOCYTE-RELATED CANCERS” (THE GOVERNING COUNCIL OF THE UNIVERSITY OF TORONTO, priority 2014, published 2016).

Columns and labels:
Type in all cases: cell-based, human
TRAF1 = TRAF1 levels by Western blot after shRNA knockdown; conditions: RAJI stably expressing shRNA, versus control treated RAJI
Experimental: Left: RAJI cells were stably transfected with control small hairpin (sh) RNA or with shRNA designed to knockdown expression of TRAF1 (shRNAs obtained from Open Biosystems (TRC library number: TRCN0000056885 sequence: […]) (SEQ ID NO:1)). TRAF1 levels in RAJI expressing shCtrl or with shTRAF1 were analyzed by Western blot. Protein loading was analyzed based on GAPDH levels. Right: TRAF1 levels in B-chronic lymphocytic leukemia (CLL) lines and Daudi CD5+ (a Burkitt's lymphoma with CLL like properties) were determined by Western blot.
Left: Schematic diagram of TRAF1 indicating site of phosphorylation by PKN1 as identified by Kato et al.^29 Middle: RAJI cells were stably transfected with control shRNA (shCtrl), TRAF1 shRNA (shTRAF1) or PKN1 shRNA (shPKN1) (obtained from Open Biosystems (TRC library number: TRCN0000001484 sequence: […] (SEQ ID NO:2)). Right: Daudi cells were transduced with control shRNA (shCTRL), shRNA targeting TRAF1 (shTRAF1) or shRNA targeting PKN1 (shPKN1). Cells were analyzed for levels of TRAF1, tubulin or GAPDH by western blot. “Pool” refers to bulk transfected cell lines without subcloning.
Based on the finding that primary T cells lacking TRAF1 are sensitive to loss of TRAF2 when 4-1 BB signalling is induced during nutrient stress, the role of the reduction of TRAF1 levels combined with nutrient stress on B lymphomas was tested. […]

RAJI cells = assay: Annexin V / propidium iodide cell death by flow cytometry, RAJI; conditions: 1 IU/ml Erwinase
Experimental: RAJI cells stably expressing control shRNA (shCtrl), TRAF1 shRNA (shTRAF1) or PKN1 shRNA (shPKN1) were left untreated or treated with 1 IU/ml Erwinase for the indicated time points. For cells treated with Erwinase for longer than 24 hrs, cell culture media was replaced every 24 hrs and 1 IU/ml Erwinase was added to ensure the continued absence of glutamine. Cells were then stained with Annexin V-FITC (ebioscience) and Propidium Iodide (PI) and then analyzed by flow cytometry (BD LSR Fortessa). The upper right quadrant (Q2) indicates the fraction dead cells.
(§1) (A) Whole cell extracts from RAJI cells treated with control shRNA (shCTRL) or TRAF2 shRNA (shTRAF2) were immunoblotted for TRAF2 or as a loading control, GAPDH. (B) Annexin V staining of RAJI after Erwinase treatment (1 IU/ml; 24 hrs) in shCTRL, shTRAF1 or shTRAF2 cells.
It was next asked what the effect of reducing TRAF1 and its signalling partner TRAF2 in lymphoma had on cell proliferation and survival. […] To determine whether this effect was due to death of the lymphoma cells, Annexin V and propidium iodide (PI) staining of the lymphomas were analyzed at different times after transfer to Erwinase containing medium. Annexin V binds to phosphatidyl serine, which becomes exposed on the surface of cells as they undergo apoptosis. Then, cells become permeable to propidium iodide upon death. […] The slightly greater effect on cell death of direct TRAF1 knockdown compared to PKN1 knockdown is consistent with the smaller effect of PKN1 knockdown on TRAF1 levels compared to direct TRAF1 knockdown with shTRAF1.

TRAF2 = TRAF2 levels by immunoblot during nutrient stress; conditions: RAJI cells, nutrient stress (low glutamine), versus WT
Experimental: (B) Wild type (WT), shCtrl or shTRAF1 RAJI cells were treated with 1 IU/ml Erwinase for 1, 3 or 6 hrs and immunoblotted for TRAF2 and TRAF1.
Right: RAJI cells stably expressing shCtrl or shPKN1 were treated with 1 IU/ml Erwinase for 0, 3 or 6 hrs and lysates were immunoblotted for TRAF2, or as a loading control, GAPDH.
To test the effect of lower levels of TRAF1 on the level of TRAF2 in lymphoma, WT and shTRAF1 RAJI cells were incubated under conditions of nutrient stress (low glutamine). […] In order to mimic conditions of nutrient stress in a manner that can be useful therapeutically, the licensed drug Erwinase (described above) was utilized. […] Of note, in contrast to the work with primary cells, the loss of TRAF2 when TRAF1 is limiting occurred without a need to add reagents to specifically engage a TNFR family member, but rather occurs spontaneously upon nutrient stress.

Erk and NF-κB activation = assay: Flow cytometry for pERK and phospho P65 subunit of NFkB; conditions: RAJI knockdown cells versus control sample
Excerpt: as §1
TRAF2 knockdown also decreases RAJI survival in the presence of Erwinase (FIG. 14). […] On the Y axis, is indicated knockdown of TRAF2, PKN1, TRAF1 or control sample. The vertical dashed line indicates the peak level of expression in the control sample for comparison with the knockdown cells.

[1] = system: Chronic lymphocytic leukemia cell line MEC2; assay: Annexin V / propidium iodide cell death by flow cytometry, MEC2; conditions: MEC2, 1 IU/ml Erwinase, 0, 18, 24 or 42 hrs
Experimental: MEC2 cells were transfected with control shRNA (shCTRL), shTRAF1 or shPKN1 and then were left untreated or treated with 1 IU/ml Erwinase for 0, 18, 24 or 42 hrs. Cell death was measured by flow cytometry for Annexin V and propidium iodide (PI), where double staining for Annexin V and Propidium iodide (PI) is used to indicate cell death.

## shTRAF1: shRNA designed to knockdown expression of TRAF1, sequence CGTGTGTTTGAGAACATTG (Open Biosystems TRC library)
TRAF1
  TRAF1 levels: substantially lower levels of TRAF1
RAJI cells
  sensitivity to Erwinase induced death (Annexin V/PI): Increases the Sensitivity of RAJI to Erwinase Induced Death
TRAF2
  TRAF2 level under low glutamine: TRAF2 was lost
Erk and NF-κB activation
  constitutive Erk and NF-κB activation: reduces constitutive Erk and NF-κB activation
[1]
  sensitivity to Erwinase induced death (Annexin V/PI): increases the sensitivity of the Chronic lymphocytic leukemia cell line MEC2 to Erwinase induced death
